Here are results for 19 molecules from PubChem BioAssay AID2060508 (Molecular Pharmacology Branch, DTP, NCI, 2025).

The term viability, T/C denotes the ratio of treated to control.

“And” between values parts separate entries of the source, which are not always exact repeats. Equal values may be shown once.
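Further: spheroids exposed to compounds for seven days.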

The first test has as its system 454973-116-R2-J3-PDC spheroids, viability, % test/control. The test can be described thus: Anticancer human tumor 454973-116-R2-J3-PDC patient-derived pancreatic carcinoma cell line growth inhibition [GQUAD]. The following applies: compound 0.000999 µM; stronger effect = lower value; spheroids with HUVEC and MSC. The source says:
DNA G-quadruplex Stabilizer Agents in Combinations in Complex Spheroids
A high-throughput screen of multi-cell type tumor spheroids was designed to identify active combinations of DNA G-quadruplex stabilizer agents and targeted small molecules. Complex spheroids include a stromal component modeled by human endothelial cells (HUVEC) and fibroblasts modeled by human mesenchymal stem cells (MSCs). The concentration ranges selected for each drug and investigational agent were based upon clinically achievable concentrations if the clinical Cmax of the agent was known.
Compounds. The drugs and investigational agents: pidnarulex (CX-5461; NSC782164), APTO-253 (NSC789042), BRACO-19 (NSC847499), peposertib (NSC802822), ceralasertib (NSC780249), elimusertib (NSC800525), camonsertib (NSC841442), AZD-1390 (NSC803789), olaparib (NSC753686), talazoparib (NSC767125), ART-558 (NSC835418), sotorasib (NSC818433), MRTX-1133 (NSC836407), SN-38 (NSC673596), topotecan (NSC609699), etoposide (NSC141540), doxorubicin (NSC123127), gemcitabine (NSC613327), 5-fluorouracil (NSC19893), paclitaxel (NSC125973), vemurafenib (NSC761431), panobinostat (NSC761190), R-306465 (JNJ-16241199; NSC773264), adavosertib (NSC754352), TP-3654 (NSC805149), carboplatin (NSC241240), KSQ-4279 (NSC840948), and staurosporine (NSC755774) were obtained from the National Cancer Institute (NCI) Developmental Therapeutics Program Chemical Repository (34). The FDA-approved anticancer drug set is available from the NCI Developmental Therapeutics Program. […] The stock solutions were prepared in dimethyl sulfoxide (DMSO, Sigma-Aldrich, St. Louis, MO, cat. D2650) at 800-fold the tested concentration and stored at -70 degrees C prior to their use. All drugs and investigational agents were tested over a range starting from a high concentration at or near the clinical Cmax and decreasing in half-log increments. If the clinical Cmax for an agent had not been determined, the highest concentration tested was 10 microM.
2.3 Cell Culture. All cells were maintained in an incubator at 37 degrees C and 5% CO2 with 95% humidity. The PDC lines were cultured according to standard operating procedures established by the NCI PDMR. All PDCs were thawed and cultured in Matrigel-coated flasks prepared with a working solution of 1X Ham's F-12 nutrient mix, without supplementation (Invitrogen, cat. 11765054), 100 U/mL penicillin-streptomycin (Invitrogen, cat. 15140122), and 2.5% Matrigel (Corning Inc., cat. 354248) for the first three passages. The 857933-349-R-J2-PDC line was cultured in 6C/Colon 1B media, which includes advanced DMEM/F-12 (Thermo Fisher Scientific, cat. 12634028), 10 mM HEPES (Thermo Fisher Scientific, cat. 15630080), 1X GlutaMAX supplement (Thermo Fisher Scientific, cat. 35050061), 0.1 mg/mL primocin (InvivoGen, cat. ant-pm-2), 10% defined fetal bovine serum, heat inactivated (HyClone Laboratories Inc., cat. SH30070.03HI), 50% L-WRN conditioned media (ATCC, cat. CRL-3276), 1.25 mM N-Acetyl-L-cysteine (Sigma-Aldrich, cat. A9165), 10 mM nicotinamide (Sigma-Aldrich, cat. N0636), 1X B-27 supplement (Thermo Fisher Scientific, cat. 17504044), 1X N-2 supplement (Thermo Fisher Scientific, cat. 17502048), 10 microM Y-27632 dihydrochloride (Tocris Bioscience, cat. 1254), and 50 ng/mL human EGF recombinant protein (Thermo Fisher Scientific, cat. PHG0311). The 485176-168-R4-J1-PDC line was cultured in Panc media, which includes all 6C/Colon 1B media components plus 100 ng/mL human FGF-10 (Thermo Fisher Scientific, cat. 100-26), 500 nM SB-431542 (Selleckchem, cat. S1067), and gastrin (Tocris, cat. 3006).
[…]
As for `CC[C@@]1(O)C(=O)OCc2c1cc1n(c2=O)Cc2cc3c(CN(C)C)c(O)ccc3nc2-1`, the viability, T/C was 104% (2×) and 105%.
For `CCc1c2c(nc3ccc(O)cc13)-c1cc3c(c(=O)n1C2)COC(=O)[C@]3(O)CC`, the viability, T/C was 67.3% and 74.7% and 64.5%.
As for `Cc1[nH]c2ccccc2c1CCNCc1ccc(/C=C/C(=O)NO)cc1`, the viability, T/C is 106% and 102% and 99.1%.
Regarding `Cn1ncnc1[C@H]1c2n[nH]c(=O)c3cc(F)cc(c23)N[C@@H]1c1ccc(F)cc1`, the viability, T/C was 105% and 108% and 102%.

Still in this test, the particulars now being: compound 0.00316 µM; stronger effect = lower value; spheroids with HUVEC and MSC.
Regarding `CC[C@@]1(O)C(=O)OCc2c1cc1n(c2=O)Cc2cc3c(CN(C)C)c(O)ccc3nc2-1`, the viability, T/C is 108% and 109% and 101%.
As to `CCc1c2c(nc3ccc(O)cc13)-c1cc3c(c(=O)n1C2)COC(=O)[C@]3(O)CC`, the viability, T/C is 29.2% and 22.9% and 21.4%.
Same read-out and setting: as for `Cc1[nH]c2ccccc2c1CCNCc1ccc(/C=C/C(=O)NO)cc1`, the figure is 112% and 98.9% and 102%; as for `Cn1ncnc1[C@H]1c2n[nH]c(=O)c3cc(F)cc(c23)N[C@@H]1c1ccc(F)cc1`, 95.6% and 90.5% and 93.4%.

Still in this test, the particulars now being: compound 0.00999 µM; stronger effect = lower value; spheroids with HUVEC and MSC.
Turning to `CC[C@@]1(O)C(=O)OCc2c1cc1n(c2=O)Cc2cc3c(CN(C)C)c(O)ccc3nc2-1`, the viability, T/C is 97.4% and 95.7% and 98.8%.
For the molecule `CCc1c2c(nc3ccc(O)cc13)-c1cc3c(c(=O)n1C2)COC(=O)[C@]3(O)CC`, the viability, T/C is 22.2% and 25.2% and 19.8%.
In the case of `Cc1[nH]c2ccccc2c1CCNCc1ccc(/C=C/C(=O)NO)cc1`, the viability, T/C was 103% and 102% and 105%.
On to `Cn1ncnc1[C@H]1c2n[nH]c(=O)c3cc(F)cc(c23)N[C@@H]1c1ccc(F)cc1`, for which the viability, T/C is 93.2% and 92.4% and 94.9%.

The test is the same for the next values; noted with them: compound 0.0316 µM; stronger effect = lower value; spheroids with HUVEC and MSC.
`C=CC(=O)N1CCN(c2nc(=O)n(-c3c(C)ccnc3C(C)C)c3nc(-c4c(O)cccc4F)c(F)cc23)C(C)C1` (stereo not drawn): the viability, T/C is 105% and 109% and 98.9%.
`CC(C)n1c(=O)n(C)c2cnc3cc(F)c(-c4ccc(OCCCN5CCCCC5)nc4)cc3c21`: the viability, T/C is 104% and 111% and 96.6%.
Consider `CC1COCCN1c1cc(-c2ccnn2C)c2ccnc(-c3ccn[nH]3)c2n1` (stereo not drawn), for which the viability, T/C is 93.7% and 96.6% and 80.7%.
Still for that read-out and setting: the result for `CC1COCCN1c1cc(C2(O)CC3CCC(C2)O3)c2cnn(-c3ccn[nH]3)c2n1` (stereo not drawn) reads 84.7% and 87.2% and 97.5%; that for `CC1COCCN1c1cc(C2(S(C)(=N)=O)CC2)nc(-c2ccnc3[nH]ccc23)n1` (stereo not drawn), 104% and 101% (2×).
Still for that read-out and setting: the result for `CC[C@@]1(O)C(=O)OCc2c1cc1n(c2=O)Cc2cc3c(CN(C)C)c(O)ccc3nc2-1` reads 63.9% and 62.8% and 59.8%; that for `CCc1c2c(nc3ccc(O)cc13)-c1cc3c(c(=O)n1C2)COC(=O)[C@]3(O)CC`, 14.2% and 15.5% and 15.7%; that for `CN(C)c1ccc(Nc2c3ccc(NC(=O)CCN4CCCC4)cc3nc3cc(NC(=O)CCN4CCCC4)ccc23)cc1`, 107% [middle of 12 runs].
Consider `COc1cc(C2c3cc4c(cc3C(OC3OC5COC(C)OC5C(O)C3O)C3COC(=O)C23)OCO4)cc(OC)c1O` (stereo not drawn), for which the viability, T/C was 106% and 98.1% and 115%.
In the case of `COc1ccc([C@@H](O)c2cc(-c3ncnc4cc(N5CCOCC5)ccc34)c(F)cc2Cl)nn1`, the viability, T/C was 110% and 102% and 111%.
Regarding `COc1cccc2c1C(=O)c1c(O)c3c(c(O)c1C2=O)CC(O)(C(=O)CO)CC3OC1CC(N)C(O)C(C)O1` (stereo not drawn), the viability, T/C was 96.8% and 101% and 90.3%.
For `Cc1[nH]c2ccc(F)cc2c1-c1nc2c3cccnc3c3ncccc3c2[nH]1`, the viability, T/C is 106% [middle of 12 runs].
Turning to `Cc1[nH]c2ccccc2c1CCNCc1ccc(/C=C/C(=O)NO)cc1`, the viability, T/C was 87.6% and 82.6% and 84.8%.
As to `Cc1cccc(N(C)C(=O)C2C(O)CCN2c2nc(C)cc(C(F)(F)F)c2C#N)c1` (stereo not drawn), the viability, T/C is 93.2% and 106% and 100%.
For `Cc1cnc(CNC(=O)c2c(=O)c3ccc(N4CCCN(C)CC4)nc3n3c2sc2ccccc23)cn1`, the viability, T/C was 92.6% [middle of 12 runs].
Consider `Cn1ncnc1[C@H]1c2n[nH]c(=O)c3cc(F)cc(c23)N[C@@H]1c1ccc(F)cc1`, for which the viability, T/C was 90.5% and 84.5% and 95%.
As to `Nc1ccn(C2OC(CO)C(O)C2(F)F)c(=O)n1` (stereo not drawn), the viability, T/C was 19.1% and 19% and 20.8%.
Same read-out and setting: as for `O=C(c1cc(Cc2n[nH]c(=O)c3ccccc23)ccc1F)N1CCN(C(=O)C2CC2)CC1`, the figure is 101% and 114% and 107%.
In the case of `O=c1[nH]cc(F)c(=O)[nH]1`, the viability, T/C was 111% and 108% and 105%.

The test is the same for the next values; noted with them: compound 0.0999 µM; stronger effect = lower value; spheroids with HUVEC and MSC.
For `CC[C@@]1(O)C(=O)OCc2c1cc1n(c2=O)Cc2cc3c(CN(C)C)c(O)ccc3nc2-1`, the viability, T/C is 18.8% and 18.6% and 21.4%.
With `CCc1c2c(nc3ccc(O)cc13)-c1cc3c(c(=O)n1C2)COC(=O)[C@]3(O)CC`, the viability, T/C is 9.13% and 8.23% and 8.16%.
